# In ChEMBL document CHEMBL5230150, “Antiviral fungal metabolites and some insights into their contribution to the current COVID-19 pandemic” (Bioorg Med Chem, 2021):
# pEC50, pIC50: −log10 of the molar value. Square brackets hold non-standard residues; d marks the D form. Peptide text beside a SMILES is read from it. * marks the point of attachment. Pro(4R-Me) = C[C@H]1CN[C@H](C(=O)O)C1; Oleoyl = CCCCCCCC/C=C\CCCCCCCC(=O)*; hSer = N[C@@H](CCO)C(=O)O
# Key:
# Zika virus [1] = assay: Antiviral activity against ZIKV Z16019 infected in A549 cells assessed as inhibition in viral replication at MOI of 1 incubated for 1 hr by plaque assay; assay type: functional, organism-based; conditions: Z16019, A549, 1 h
# Influenza A virus [2] = assay: Antiviral activity against Influenza A virus H3N2 subtype infected in MDCK cells assessed as inhibition of viral replication incubated for 48 hrs by CPE inhibition assay; assay type: functional, organism-based
# Influenza A virus [3] = assay: Antiviral activity against Influenza A virus H1N1 subtype infected in MDCK cells assessed as inhibition of viral replication incubated for 48 hrs by CPE inhibition assay; assay type: functional, organism-based
# Influenza A virus [4] = assay: Antiviral activity against Influenza A virus A/Puerto Rico/8/34(H1N1) strain infected in MDCK cells assessed as inhibition of viral infection incubated for 60 mins by CPE inhibition assay; assay type: functional, organism-based; conditions: 1 h
# Hepatitis C virus = assay: Antiviral activity against HCV J8CC; assay type: functional, organism-based, Hepacivirus hominis
# dengue virus type 2 [5] = assay: Antiviral activity against DENV2 assessed as inhibition of viral replication by DENV RNA-dependent RNA polymerase assay; assay type: functional, organism-based
# dengue virus type 2 [6] = assay: Antiviral activity against DENV2 16681 infected in HEK293T/17 cells assessed as reduction in viral replication at MOI of 1 to 10 incubated for 24 hrs by standard plaque assay; assay type: functional, organism-based; conditions: Dengue virus, 16681, HEK293T/17, 24 h
# [7] = test system: Human immunodeficiency virus 1; assay: Antiviral activity against HIV-1 infected in SUP-T1 cells assessed as inhibition of viral replication at MOI of 1 treated for 48 hrs by luciferase assay; assay type: functional, organism-based; conditions: Human immunodeficiency virus 1, SUP-T1, 48 h
# Influenza A virus [8] = assay: Antiviral activity against Influenza A virus A/Puerto Rico/8/34(H1N1) strain infected in MDCK cells assessed as inhibition of viral infection by CPE inhibition assay; assay type: functional, organism-based
# Zika virus [9] = assay: Antiviral activity against ZIKV infected in A549 cells assessed as viral replication inhibition; assay type: functional, organism-based
# dengue virus type 2 [10] = assay: Antiviral activity against DENV2 00st-22A infected in Vero cells assessed as reduction in viral replication at MOI of 0.5 incubated for 48 hrs by focus-forming assay; assay type: functional, organism-based
smiles,measurement,setting,value
O=C(C(=O)c1c[nH]c2ccccc12)c1c[nH]c2ccccc12,pEC50,Zika virus [1],5.38
CC[C@H]1O[C@@H]2O[C@H](/C=C/C=C/C=C/c3oc(=O)cc(OC/C=C(\C)C(=O)OC)c3C)[C@H](O)[C@]2(C)[C@@]1(C)O,pEC50,Influenza A virus [2],5.21
same,pEC50,Influenza A virus [3],5.46
COC(=O)/C(C)=C/COc1cc(=O)oc(/C=C/C=C/C=C/[C@H]2O[C@H]3O[C@H](C)[C@](C)(O)[C@@]3(C)[C@H]2O)c1C,pEC50,Influenza A virus [2],5.05
COc1cc(O)c2c(c1)C(=O)C1=C(C2=O)[C@H](O)[C@@H](O)[C@@](C)(O)C1,IC50,Influenza A virus [4],8.35 µg/mL
CC[C@@H]1N[C@@H]2N(C1=O)c1ccccc1[C@@]2(O)C[C@@H]1C(=O)NC(=C(C)C)c2nc3ccccc3c(=O)n21,pEC50,Hepatitis C virus,3.89
CC(=O)OC/C=C(\C)[C@@H]1C(C)=C[C@@H]2CC[C@H](O)[C@H](C)[C@H]2[C@@H]1/C=C/C=C/C(=O)O,pIC50,dengue virus type 2 [5],4.87
C/C=C(\C)[C@@H]1C(C)=C[C@@H]2CC(=O)C[C@H](C)[C@H]2[C@@H]1/C=C/C=C/C(=O)O,pIC50,dengue virus type 2 [5],4.93
CC1(C)C(=O)N2c3ccccc3[C@@]3(C[C@H]4n5c(nc6ccccc6c5=O)C(=O)C(C)(C)[C@@]4(O)O3)[C@@H]2N1S(C)(=O)=O,pEC50,Hepatitis C virus,3.96
CC(C)[C@@H]1NC(=O)[C@@H](C[C@@]2(O)c3ccccc3N3C(=O)C(C)(C)N[C@@H]32)n2c1nc1ccccc1c2=O,pEC50,dengue virus type 2 [6],5.33
CC[C@H](C)[C@@H](O)C(=O)[C@H]1C2=COC(C)=CC2=CC(=O)[C@@]1(C)O,pIC50,[7],6.30
COc1cccc2oc3cc(C)c(O)c(CO)c3c(=O)c12,pIC50,Influenza A virus [8],5.33
C=C(CC[C@@H](C)[C@H]1CC=C2C3=C(CC[C@@]21C)[C@@]1(C)CC[C@H](O)C[C@@H]1CC3=O)C(C)C,pIC50,[7],5.46
COc1ccc2oc3cc(C)c(O)c(CO)c3c(=O)c2c1OC,pIC50,Influenza A virus [8],5.66
C=C(C)C#CC1=C[C@@H]2O[C@@H](C(C)(C)O)C[C@]23O[C@@H]3[C@H]1O,pIC50,[7],4.79
C[C@]1(O)CC2=C(C(=O)c3c(O)cc(O)cc3C2=O)[C@H](O)[C@H]1O,IC50,Influenza A virus [4],2.59 µg/mL
C=C1CCC[C@]2(C)[C@H]3COC(=O)[C@H]3CC[C@@]12O,IC50,Influenza A virus [8],2.96 µg/mL
CCCCCCCC/C=C\CCCCCCCC(=O)N[C@H](C(=O)N1C[C@H](C)C[C@H]1C(=O)N[C@H](C(=O)N[C@@H](CCOC(C)=O)C(=O)N[C@@H](C)C=O)C(C)C)[C@@H](C)O (Oleoyl-T[Pro(4R-Me)]V[hSer](Ac)A-aldehyde),pIC50,Zika virus [9],6.82
same,pEC50,Zika virus [1],5.30
COc1cc(O)c2c(c1)C(=O)C1=C(C[C@@H](O)[C@@](C)(O)C1)C2=O [ALTERSOLANOL B],IC50,Influenza A virus [4],7.82 µg/mL
C[C@H]1CCC/C=C/[C@@H]2C[C@H](O)C[C@H]2[C@H](O)/C=C/C(=O)O1 [BREFELDIN A],pIC50,dengue virus type 2 [10],7.26
CC[C@H](C)C(=O)[C@H]1C(=O)O[C@@]2(C)C(=O)C=C3C=C(C)OC=C3[C@H]12 [CHERMESINONE B],IC50,Influenza A virus [4],0.8 µg/mL
